Test results reported in PubChem BioAssay (NCI).
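Grown in 96-well plates, cells were treated for 48 hours with each compound at five concentrations. Insufficient inhibition: endpoint recorded as highest concentration tested. At the GI50, growth is halved. TGI is the concentration that stops growth completely.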

Key:
Assay in all cases: NCI-60 cell line screen, 48 h
SF-539 CNS = tested on: SF-539 CNS
SK-MEL-28 melanoma = tested on: SK-MEL-28 melanoma
HS 578T breast = tested on: HS 578T breast
MALME-3M melanoma = tested on: MALME-3M melanoma
HCC-2998 colon = tested on: HCC-2998 colon
HOP-62 NSCLC = tested on: HOP-62 NSCLC
SW-620 colon = tested on: SW-620 colon
HCT-116 colon = tested on: HCT-116 colon
T-47D breast = tested on: T-47D breast
DU-145 prostate = tested on: DU-145 prostate
786-0 renal = tested on: 786-0 renal
EKVX NSCLC = tested on: EKVX NSCLC
SK-OV-3 ovarian = tested on: SK-OV-3 ovarian
OVCAR-3 ovarian = tested on: OVCAR-3 ovarian
SK-MEL-2 melanoma = tested on: SK-MEL-2 melanoma
NCI-H522 lung = tested on: NCI-H522 lung
CCRF-CEM leukemia = tested on: CCRF-CEM leukemia
NCI-H226 lung = tested on: NCI-H226 lung
SNB-19 CNS = tested on: SNB-19 CNS
A549 NSCLC = tested on: A549 NSCLC
LOX IMVI melanoma = tested on: LOX IMVI melanoma
COLO 205 colon = tested on: COLO 205 colon
ACHN renal = tested on: ACHN renal
MDA-MB-435 = tested on: MDA-MB-435
UACC-62 melanoma = tested on: UACC-62 melanoma
M14 melanoma = tested on: M14 melanoma
HT29 colon = tested on: HT29 colon

In the case of `CCOc1cc(-c2ccc[nH]2)[nH]c1/C=C1\N=C(C)C(C(=O)OC)=C1C`, the GI50 (SF-539 CNS) is reported as 59 nM, the TGI (SF-539 CNS) is reported as 968 nM and the GI50 (SK-MEL-28 melanoma) is reported as 143 nM. It also gave a TGI (SK-MEL-28 melanoma) of 900 nM, a GI50 (HS 578T breast) of 47.5 nM and a TGI (HS 578T breast) of 580 nM. For the same molecule, the GI50 (MALME-3M melanoma) was 216 nM, the TGI (MALME-3M melanoma) was 4300 nM and the GI50 (HCC-2998 colon) was 44.2 nM. For the same molecule, the TGI (HCC-2998 colon) was 1340 nM, the GI50 (HOP-62 NSCLC) was 36.1 nM and the TGI (HOP-62 NSCLC) was 294 nM. For the same molecule, the GI50 (SW-620 colon) was 32.1 nM, the TGI (SW-620 colon) was 1550 nM and the GI50 (HCT-116 colon) was 18.8 nM. It also gave a TGI (HCT-116 colon) of 1080 nM, a GI50 (T-47D breast) of 31.1 nM and a TGI (T-47D breast) of 367 nM. The GI50 (DU-145 prostate) was 54.9 nM, the TGI (DU-145 prostate) was 1560 nM and the GI50 (786-0 renal) was 32.9 nM. The TGI (786-0 renal) was 259 nM, the GI50 (EKVX NSCLC) was 235 nM and the TGI (EKVX NSCLC) was 2300 nM. The GI50 (SK-OV-3 ovarian) was 183 nM, the TGI (SK-OV-3 ovarian) was 1570 nM and the GI50 (OVCAR-3 ovarian) was 32.9 nM. The TGI (OVCAR-3 ovarian) was 1040 nM, the GI50 (SK-MEL-2 melanoma) was 25.6 nM and the TGI (SK-MEL-2 melanoma) was 89.3 nM. It also gave a GI50 (NCI-H522 lung) of 56.1 nM, a TGI (NCI-H522 lung) of 318 nM and a TGI (CCRF-CEM leukemia) of 1990 nM. For the same molecule, the GI50 (NCI-H226 lung) was 18.5 nM, the TGI (NCI-H226 lung) was 44 nM and the GI50 (SNB-19 CNS) was 239 nM. The TGI (SNB-19 CNS) was 2910 nM, the GI50 (A549 NSCLC) was 53.1 nM and the TGI (A549 NSCLC) was 580 nM. For the same molecule, the GI50 (LOX IMVI melanoma) was 10.2 nM, the TGI (LOX IMVI melanoma) was 38.1 nM and the GI50 (COLO 205 colon) was 31 nM. It also gave a TGI (COLO 205 colon) of 304 nM, a GI50 (ACHN renal) of 34.4 nM and a TGI (ACHN renal) of 1160 nM. It also gave a GI50 (MDA-MB-435) of 32.5 nM, a TGI (MDA-MB-435) of 1050 nM and a GI50 (UACC-62 melanoma) of 24 nM. It also gave a TGI (UACC-62 melanoma) of 58.1 nM, a GI50 (M14 melanoma) of 34.8 nM and a TGI (M14 melanoma) of 1180 nM. For the same molecule, the GI50 (HT29 colon) was < 12.3 nM and the TGI (HT29 colon) was 1060 nM.
